# Assay results from publication PMC8842310 (Journal of Medicinal Chemistry, 2022).
# Tested on: CDI iCell cardiomyocytes
# Settings: geometric mean of the MEC values for beat period, Na+ slope, Na+ amplitude, field duration
smiles,measurement,value
"CCNC(=N)NC(=O)Nc1c(CC)cc(NS(=O)(=O)c2ccccc2)cc1CC [5n, N-(3,5-Diethyl-4-(3-(N-ethylcarbamimidoyl)ureido)phenyl)benzenesulfonamide]",MEC Gmean cardiomyocytes,8.9 µM
